{"source": "paper PMC9405973", "about": "“Altered Conformational Landscape upon Sensing Guanine Nucleotides in a Disease Mutant of Elongation Factor-like 1 (EFL1) GTPase” (Biomolecules, 2022)", "molecular_target": "T1, Efl1 wild type in complex with Sdo1 and 60S subunits (Saccharomyces cerevisiae, UniProt P53893)", "T1 construct": "made in house; host or cells: Efl1: Saccharomyces cerevisiae; Sdo1: Escherichia coli C41; 60S subunits purified from S. cerevisiae strain JD1370", "T1 sequence (P53893 1-1110)": "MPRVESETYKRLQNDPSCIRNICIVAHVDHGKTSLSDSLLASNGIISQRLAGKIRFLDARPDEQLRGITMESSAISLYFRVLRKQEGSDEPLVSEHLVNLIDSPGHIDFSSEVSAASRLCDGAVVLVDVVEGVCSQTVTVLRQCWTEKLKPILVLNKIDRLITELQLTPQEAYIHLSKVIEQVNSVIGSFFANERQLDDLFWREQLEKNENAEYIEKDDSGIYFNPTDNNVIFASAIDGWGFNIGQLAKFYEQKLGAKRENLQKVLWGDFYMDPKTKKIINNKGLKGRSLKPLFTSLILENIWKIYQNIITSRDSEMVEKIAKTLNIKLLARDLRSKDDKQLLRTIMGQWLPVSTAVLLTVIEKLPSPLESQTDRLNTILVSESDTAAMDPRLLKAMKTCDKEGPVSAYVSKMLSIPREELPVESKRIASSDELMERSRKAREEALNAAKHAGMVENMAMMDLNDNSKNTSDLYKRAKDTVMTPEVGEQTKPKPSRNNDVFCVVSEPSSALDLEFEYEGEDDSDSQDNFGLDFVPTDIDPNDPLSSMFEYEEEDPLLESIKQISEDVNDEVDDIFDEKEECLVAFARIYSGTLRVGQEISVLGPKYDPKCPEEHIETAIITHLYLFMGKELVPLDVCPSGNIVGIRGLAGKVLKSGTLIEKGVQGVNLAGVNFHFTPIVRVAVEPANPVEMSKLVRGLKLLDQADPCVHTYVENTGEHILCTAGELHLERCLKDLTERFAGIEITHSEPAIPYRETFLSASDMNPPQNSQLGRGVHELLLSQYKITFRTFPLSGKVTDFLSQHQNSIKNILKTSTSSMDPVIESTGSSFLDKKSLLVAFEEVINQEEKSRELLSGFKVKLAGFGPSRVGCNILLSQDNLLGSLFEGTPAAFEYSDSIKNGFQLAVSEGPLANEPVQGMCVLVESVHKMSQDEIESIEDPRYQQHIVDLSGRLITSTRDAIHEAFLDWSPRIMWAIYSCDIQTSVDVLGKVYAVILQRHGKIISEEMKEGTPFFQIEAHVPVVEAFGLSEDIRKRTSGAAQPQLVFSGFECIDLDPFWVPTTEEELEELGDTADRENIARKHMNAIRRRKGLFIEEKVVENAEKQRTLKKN", "T1 sequence (Q07953 1-250 partner)": "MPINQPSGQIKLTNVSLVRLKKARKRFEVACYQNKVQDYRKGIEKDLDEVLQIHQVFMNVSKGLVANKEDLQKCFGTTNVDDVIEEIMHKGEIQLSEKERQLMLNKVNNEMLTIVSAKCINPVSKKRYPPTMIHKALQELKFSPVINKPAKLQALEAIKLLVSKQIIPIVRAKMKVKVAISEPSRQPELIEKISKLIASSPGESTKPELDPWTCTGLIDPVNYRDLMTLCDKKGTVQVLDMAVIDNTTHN", "assay": "Steady state fluorescence binding of mant-GTP to Efl1 wild type in complex with Sdo1 and 60S subunits", "details": "25 °C, one-binding-site model; read-out: dissociation constant (Kd)", "experimental": "We measured the binding of different Efl1 constructs present in complex with Sdo1 and 60S subunits to the fluorescence GTP analogue, mant-GTP, by following the increase in the fluorescence signal after excitation at 355 nm. Fluorescence intensities were plotted as a function of increasing nucleotide concentrations, and the dissociation constant (Kd) was calculated by fitting the data to a one-binding-site model (Supplementary Figure S1B).\nHydrolysis of GTP was measured using the Enzchek Phosphate Assay kit (Molecular Probes) as described by Webb. Standard reactions consisted of 100 µL containing 6 µM of Efl1 R1086Q and Efl1 L910K, 0.3 mM MESG, 1.0 U purine nucleoside phosphorylase (PNP) and the indicated amounts of GTP. […]\nReactions were initiated and the GTPase was added after 3 min. Time courses were followed by recording the change in absorbance at 360 nm in a Cary 60 UV -Vis spectrophotometer (Agilent Technologies). Background absorbance was recorded prior to the addition of the GTPase and subtracted from the sample signals. The slope of the measured time courses corresponded to the GTP hydrolysis rate. […] Data were analysed by nonlinear regression to the M ichaelis-Menten equation with the program Origin Version 5.0 (OriginLab, Co., Northampton, MA). […]\nSteady state fluorescence measurements […]\nMaximum emission at 440 nm was replotted as a function of nucleotide concentration and analysed", "data": [{"smiles": "CNc1ccccc1C(=O)O[C@H]1[C@@H](O)[C@H](n2cnc3c(=O)[nH]c(N)nc32)O[C@@H]1COP(=O)(O)OP(=O)(O)OP(=O)(O)O", "note": "[mant-GTP]", "values": [{"measurement": "Kd", "result": 36, "unit": "µM"}]}]}
